Among the data in patent publication US11040981B2, “Pyrrolotriazine compounds and methods of inhibiting TAM kinases” (Syros Pharmaceuticals, Inc., priority 2017, dated 2021) are IC50 values, retold here.

Experiment [1] concerns the target T1, FLT3 (Homo sapiens, UniProt P36888).
T1 sequence (P36888 27-993): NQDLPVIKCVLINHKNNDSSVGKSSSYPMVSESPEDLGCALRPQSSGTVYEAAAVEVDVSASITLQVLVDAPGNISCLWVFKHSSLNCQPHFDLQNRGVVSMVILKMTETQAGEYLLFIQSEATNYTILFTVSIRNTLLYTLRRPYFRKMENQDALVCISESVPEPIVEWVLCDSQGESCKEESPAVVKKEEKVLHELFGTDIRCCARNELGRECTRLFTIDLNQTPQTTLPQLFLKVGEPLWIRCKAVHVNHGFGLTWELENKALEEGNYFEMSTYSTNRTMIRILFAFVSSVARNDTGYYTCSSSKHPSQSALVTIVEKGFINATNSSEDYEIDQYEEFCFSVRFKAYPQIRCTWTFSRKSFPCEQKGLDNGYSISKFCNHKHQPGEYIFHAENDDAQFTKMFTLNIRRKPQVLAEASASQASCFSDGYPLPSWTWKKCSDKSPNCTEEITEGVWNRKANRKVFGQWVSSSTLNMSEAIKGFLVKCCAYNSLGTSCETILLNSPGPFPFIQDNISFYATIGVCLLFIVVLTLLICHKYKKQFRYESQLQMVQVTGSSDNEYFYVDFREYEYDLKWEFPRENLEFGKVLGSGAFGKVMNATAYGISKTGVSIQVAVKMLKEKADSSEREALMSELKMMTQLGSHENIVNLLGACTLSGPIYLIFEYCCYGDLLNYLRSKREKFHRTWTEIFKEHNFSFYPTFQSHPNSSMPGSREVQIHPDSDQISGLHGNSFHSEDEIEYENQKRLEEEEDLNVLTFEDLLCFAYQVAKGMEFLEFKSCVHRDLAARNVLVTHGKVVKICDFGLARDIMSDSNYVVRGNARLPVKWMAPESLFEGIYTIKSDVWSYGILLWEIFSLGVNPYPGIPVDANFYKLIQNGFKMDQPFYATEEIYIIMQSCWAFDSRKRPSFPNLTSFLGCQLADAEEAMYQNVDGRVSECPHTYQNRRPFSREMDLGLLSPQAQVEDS
Briefly: TR-FRET kinase activity assay, FLT3. Particulars: ATP at Km, 60 minutes. In kind it is biochemical. Summed up: (§1)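 Each kinase phosphorylated a fluorescent-labelled tyrosine peptide in 50 mM HEPES pH 7.5, 10 mM MgCl2, 1 mM EGTA, 0.01% Brij 35, 1 mM DTT at RT, with ATP at Km for that enzyme. After 60 min, EDTA quench and Eu-anti-phosphotyrosine antibody (30 min, dark); IC50 from TR-FRET decrease.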

For experiment [2], the target named is T2, AXL (Homo sapiens, UniProt P30530).
T2 sequence (P30530 26-894): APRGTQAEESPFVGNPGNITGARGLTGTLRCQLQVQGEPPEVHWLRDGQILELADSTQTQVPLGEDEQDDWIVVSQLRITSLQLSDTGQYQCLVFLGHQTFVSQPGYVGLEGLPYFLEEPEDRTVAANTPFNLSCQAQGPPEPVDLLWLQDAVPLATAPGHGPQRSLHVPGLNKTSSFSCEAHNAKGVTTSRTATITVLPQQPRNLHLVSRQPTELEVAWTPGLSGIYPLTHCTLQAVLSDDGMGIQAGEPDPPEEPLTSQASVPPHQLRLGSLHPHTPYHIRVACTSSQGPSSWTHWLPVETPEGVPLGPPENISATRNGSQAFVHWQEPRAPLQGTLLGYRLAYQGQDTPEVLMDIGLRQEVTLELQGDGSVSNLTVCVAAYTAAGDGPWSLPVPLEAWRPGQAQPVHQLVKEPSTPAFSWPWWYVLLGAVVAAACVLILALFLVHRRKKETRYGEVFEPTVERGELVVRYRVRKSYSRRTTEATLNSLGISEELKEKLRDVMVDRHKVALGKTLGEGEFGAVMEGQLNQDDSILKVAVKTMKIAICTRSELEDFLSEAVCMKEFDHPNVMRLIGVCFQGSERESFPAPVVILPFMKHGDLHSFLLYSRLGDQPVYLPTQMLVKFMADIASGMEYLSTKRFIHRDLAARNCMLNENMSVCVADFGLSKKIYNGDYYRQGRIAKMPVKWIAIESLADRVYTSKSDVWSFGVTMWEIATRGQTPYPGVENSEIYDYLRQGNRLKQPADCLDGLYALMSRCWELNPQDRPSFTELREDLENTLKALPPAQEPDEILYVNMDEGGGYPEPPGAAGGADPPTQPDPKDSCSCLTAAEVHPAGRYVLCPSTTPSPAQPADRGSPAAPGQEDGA
Kind of experiment: TR-FRET kinase activity assay, AXL. In kind it is biochemical. Particulars: ATP at Km, 60 minutes. The method, boiled down:
as §1

As for `COC[C@H](C)Nc1ncc2c(-c3cnn(C[C@@H]4CC(=O)N(C)C4)c3)cc([C@H]3CC[C@H](O)CC3)n2n1` [Compound 473], the results for the IC50 in experiment [1] and in experiment [2] were 100 to 1000 nM and not above 100 nM, respectively.

Consider `COC[C@H](C)Nc1ncc2c(-c3cnn([C@H]4CCN(C)C4=O)c3)cc([C@H]3CC[C@H](O)CC3)n2n1` [Compound 470], for which the IC50 in experiment [1] was 100 to 1000 nM; in experiment [2], not above 100 nM.

For `COC[C@H](C)Nc1ncc2c(C3=C[C@H]4CC[C@@H](C3)N4C(=O)N3CCOCC3)cc([C@H]3CC[C@H](O)CC3)n2n1` [Compound 469], the values for the IC50 in experiment [1] and in experiment [2] were 100 to 1000 nM and not above 100 nM, respectively.

Regarding `COC[C@H](C)Nc1ncc2c(C3=C[C@@H]4CC[C@H](C3)N4CC(F)(F)F)cc([C@H]3CC[C@H](O)CC3)n2n1` [Compound 485], the results for the IC50 in experiment [1] and in experiment [2] were 100 to 1000 nM and not above 100 nM, respectively.

Take `COC[C@H](C)Nc1ncc2c(-c3ccnc(N4CCN(C5COC5)CC4)c3)cc([C@H]3CC[C@H](O)CC3)n2n1` [Compound 486]: the results for the IC50 in experiment [1] and in experiment [2] were 1000 to 10000 nM and not above 100 nM, respectively.

`COC[C@H](C)Nc1ncc2c(C3=C[C@H]4CC[C@@H](C3)N4CC(F)(F)F)cc([C@H]3CC[C@H](O)CC3)n2n1` [Compound 492]: the IC50 was 1000 to 10000 nM in experiment [1] and not above 100 nM in experiment [2].

Take `COC[C@H](C)Nc1ncc2c(-c3ccnc(N4Cc5nc(C)sc5C4)c3)cc([C@H]3CC[C@H](O)CC3)n2n1` [Compound 479, (trans)-4-(2-(((S)-1-methoxypropan-2-yl)amino)-5-(2-(2-methyl-4H-pyrrolo[3,4-d]thiazol-5(6H)-yl)pyridin-4-yl)pyrrolo[2,1-f][1,2,4]triazin-7-yl)cyclohexanol]: the IC50 in experiment [1] was 1000 to 10000 nM; in experiment [2], not above 100 nM.

Regarding `COC[C@H](C)Nc1ncc2c(-c3cnn(C(C)(C)c4nnc(C)o4)c3)cc([C@H]3CC[C@H](O)CC3)n2n1` [Compound 440], the results for the IC50 in experiment [1] and in experiment [2] were 1000 to 10000 nM and not above 100 nM, respectively.

Regarding `COC[C@H](C)Nc1ncc2c(-c3cnn(C4COC4)c3)cc(C3CCOCC3)n2n1` [Compound 503], the values for the IC50 in experiment [1] and in experiment [2] were 1000 to 10000 nM and 100 to 1000 nM, respectively.

For `COC[C@H](C)Nc1ncc2c([C@H]3CC[C@@H](C(=O)N4CCOCC4)CC3)cc([C@H]3CC[C@H](O)CC3)n2n1` [Compound 484], the IC50 in experiment [1] was 1000 to 10000 nM; in experiment [2] it was 100 to 1000 nM.

On to `CC[C@H](C)Nc1ncc2c(C3=CCNCC3)cc([C@H]3CC[C@H](O)CC3)n2n1` [Compound 130], for which the IC50 in experiment [1] and in experiment [2] was not above 100 nM in each case.

With `CCC1(Nc2ncc3c(-c4ccc(CN5CCN(C)CC5)cc4)cc([C@H]4CC[C@H](O)CC4)n3n2)CCC1` [Compound 126], the IC50 was in the range of 1000 to 10000 nM in experiment [1] and 100 to 1000 nM in experiment [2].

With `C[C@@H](CC(F)(F)F)Nc1ncc2c(C3=C[C@@H]4CC[C@H](C3)N4)cc([C@H]3CC[C@H](O)CC3)n2n1` [Compound 499], the IC50 in experiment [1] is 100 to 1000 nM; in experiment [2], not above 100 nM.

On to `COC[C@H](C)Nc1ncc2c(-c3cnn(C(C)(C)C(=O)N4Cc5nc(C)sc5C4)c3)cc([C@H]3CC[C@H](O)CC3)n2n1` [Compound 495], for which the IC50 in experiment [1] is 1000 to 10000 nM; in experiment [2], not above 100 nM.

On to `COC[C@H](C)Nc1ncc2c(-c3cnn(C[C@@H]4CCO4)c3)cc([C@H]3CC[C@H](O)CC3)n2n1` [Compound 474], for which the IC50 was 100 to 1000 nM in experiment [1] and not above 100 nM in experiment [2].
